Assay results as given in US9439874B2, “Food composition for nourishing, maintaining and cultivating a variety of stem cells and a method for manufacturing the same” (THE WRITER OF RESVERATROL BIOTECH R&D CO., LTD., priority 2012, dated 2016).

Legend:
[1] = test system: rat mesenchymal stem cells; settings: cited from earlier work
[2] = isomerization under irradiation of UV analyzer; format: physicochemical; settings: UV analyzer 136 μw/cm^2, embedded vs unembedded
From the text: 2. Solutions to the problem of cis & trans structures and transformation of resveratrol. Trans-resveratrol is very instable and will transform into cis-resveratrol under the UV irradiation. After its aqueous solution (pH1-7) kept in dark place for 28 day, 4.7% of the trans-resveratrol will transform into cis-resveratrol. Low water solubility and poor stability under UV irradiation restrict the all-purpose application. Therefore, HP-β-CD is used to embed the resveratrol into inclusion compound. […] Moreover, the food formula packaged by capsule solves the problems of oxidization misgivings and stability.

[3] = test system: nematodes, drosophila, African Carp and mouse; settings: cited from earlier work
[4] = cited from earlier work
[5] = test system: human lung adenocarcinoma A549 cells; settings: 20 μM, EGF-induced; cited from earlier work
[6] = test system: L-8; settings: mouse, in vivo; cited from earlier work
[7] = test system: Lymphoma Raji cells; settings: in vitro; cited from earlier work
[8] = test system: esophageal cancer cell; settings: cited from earlier work
[9] = test system: Lewis lung carcinoma; settings: mouse, in vivo; cited from earlier work
[10] = test system: MDA-MB-231 cell; settings: combination with TRAIL; cited from earlier work
[11] = test system: cervical cancer Hela cells; settings: cited from earlier work
[12] = test system: human gastric cancer BGC823 cells; settings: cited from earlier work
[13] = test system: human telomerase reverse transcriptase (hTERT); settings: dose- and time-dependent; cited from earlier work
[14] = test system: human laryngeal cancer Hep-2 cell; settings: cited from earlier work
[15] = test system: malignant glioma cell line U87 and cancer stem cells (CSCs); settings: cited from earlier work
[16] = test system: cancer stem cells; settings: cited from earlier work

In the case of `O=c1c(O)c(-c2ccc(O)c(O)c2)oc2cc(O)cc(O)c12` [quercetin], the “proliferation and differentiation of mesenchymal stem cells of bone marrow” value [1] is listed as “promote” and the “expression of BMP2 mRNA” value ([1]; differentiation of mesenchymal stem cells) is listed as “increase”.
In the case of `Oc1ccc(C=Cc2cc(O)cc(O)c2)cc1` [resveratrol], the “isomerization under UV irradiation” value [2] is given as “quickens up isomerization”, the prolongation of life [3] is given as 30-75% and the “solubility in organic solvents” value ([4]; ethyl ether, chloroform, methanol, ethanol, acetone, acetic ether) is given as “soluble”. The solubility in water ([4]; water) was “hardly soluble (slightly soluble)”, the “A549 cells' invasion” value [5] was “inhibit” and the “tumor-bearing mice L-8 generation” value [6] was “inhibit”. The “IL-8 mRNA expression of lymphoma Raji cells” value [7] was “inhibit”, the “proliferation of lymphoma Raji cells” value [7] was “inhibit” and the “esophageal cancer cell apoptosis” value [8] was “induce”. For the same compound, the “growth of Lewis lung carcinoma in mice” value [9] was “inhibiting the growth”, the TRAIL-induced cell apoptosis [10] was “enhanced” and the “in vitro growth of cervical cancer Hela cells” value [11] was “obvious inhibition effects”. The “proliferation of BGC823 cells” value [12] was “inhibit”, the “telomerase activity in BGC823” value ([12]; with the extension of the time) was “declined” and the “expression of hTERT mRNA and protein” value [13] was “down-regulated”. The Hep-2 cell proliferation [14] was “suppress”, the “apoptosis of U87 and cancer stem cells” value [15] was “induce” and the “cancer stem cells survival” value ([16]; high concentration of resveratrol with radiotherapy) was “one-third”. For the same compound, the enhancement of radiotherapy ([16]; high concentration of resveratrol, mice bearing tumor) was 30%-50%.
